Results published in ChEMBL document CHEMBL1909557, “Oligopeptide cyclophilin inhibitors: a reassessment” (Eur J Med Chem, 2011).
Active and inactive are the calls of the source. Peptide text beside a SMILES is read from it.

Assays:
[1] = target: Peptidyl-prolyl cis-trans isomerase A (Homo sapiens) (UniProt P62937); experiment: Binding affinity to human recombinant cyclophilin-A up to 25 uM by isothermal titration calorimetry assay
[2] = target: Peptidyl-prolyl cis-trans isomerase A (Homo sapiens) (UniProt P62937); experiment: Inhibition of PPIase activity of human recombinant cyclophilin-A using succinyl-Ala-Ala-Pro-Phe-4-nitroanilide as substrate at 100 uM by protease coupled assay
[3] = target: Peptidyl-prolyl cis-trans isomerase A (Homo sapiens) (UniProt P62937); experiment: Inhibition of PPIase activity of human recombinant cyclophilin-A using succinyl-Ala-Ala-Pro-Phe-4-nitroanilide as substrate at 100 uM pretreated for 3 hrs before substrate addition by spectrophotometry

Sequence of Peptidyl-prolyl cis-trans isomerase A (Homo sapiens) (P62937 whole entry, looked up): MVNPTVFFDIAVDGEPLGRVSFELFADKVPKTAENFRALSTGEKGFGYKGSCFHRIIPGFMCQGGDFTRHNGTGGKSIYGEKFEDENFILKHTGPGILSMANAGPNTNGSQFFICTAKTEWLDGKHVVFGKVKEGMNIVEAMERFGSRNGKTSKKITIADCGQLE

N[C@@H](Cc1c[nH]c2ccccc12)C(=O)NCC(=O)N1CCC[C@H]1C(=O)O (H-Trp-Gly-Pro-OH)
inactive: Activity [1] | inhibition [2] | inhibition [3]
